# Columns and labels:
# Experiment in all cases: relative viability (nuclei count vs DMSO), 5 days (fraction); higher = more cells survive
# AZ3146 + Pictilisib = compound: CN1CCC(CC1)OC2=CC(=C(C=C2)NC3=NC=C4C(=N3)N(C(=O)N4C)C5CCCC5)OC [AZ3146] + CS(=O)(=O)N1CCN(Cc2cc3nc(-c4cccc5[nH]ncc45)nc(N4CCOCC4)c3s2)CC1 [Pictilisib] (partner 1 µM)
# How it was run: (§1)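 Dosing by pin tool came one day after lung cancer cell lines were seeded in 1536-well plates, using either one drug or a fixed anchor-drug dose plus five library-drug doses (not always all listed) in √10 steps. After 5 days, nuclei were counted on 4× images. Relative viability is treated-well nuclei count divided by vehicle-well nuclei count, and values are medians of duplicate plates.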
# AZ3146 + Foretinib = compound: CN1CCC(CC1)OC2=CC(=C(C=C2)NC3=NC=C4C(=N3)N(C(=O)N4C)C5CCCC5)OC [AZ3146] + COc1cc2c(Oc3ccc(NC(=O)C4(C(=O)Nc5ccc(F)cc5)CC4)cc3F)ccnc2cc1OCCCN1CCOCC1 [Foretinib] (partner 0.25 µM)
# How it was run: as §1
# AZ3146 = compound: CN1CCC(CC1)OC2=CC(=C(C=C2)NC3=NC=C4C(=N3)N(C(=O)N4C)C5CCCC5)OC [AZ3146]
# How it was run: (§2)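 MetaXpress counted nuclei in 4× images of lung cancer cell lines that had been fixed, permeabilised and Hoechst-stained in one step. Before that, cells in 1536-well plates were kept overnight at 37 °C, pinned with five √10-spaced library-drug doses on vehicle-anchored plates, and cultured 5 days without medium change. Viability takes treated-well nuclei over vehicle-well nuclei and uses the median across plates. Plates were accepted only at control CV below 25% and at least one doubling.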
# GSK-J4 = compound: CCOC(=O)CCNc1cc(N2CCc3ccccc3CC2)nc(-c2ccccn2)n1 [GSK-J4]
# How it was run: as §2
cell line,measurement,setting,value
UMC-11,relative viability,AZ3146 + Pictilisib; first compound 0.08 µM,0.698
same,relative viability,AZ3146 + Pictilisib; first compound 0.253 µM,0.99
same,relative viability,AZ3146 + Pictilisib; first compound 0.8 µM,0.706
same,relative viability,AZ3146 + Pictilisib; first compound 2.53 µM,0.802
same,relative viability,AZ3146 + Pictilisib; first compound 8 µM,0.513
same,relative viability,AZ3146 + Foretinib; first compound 0.08 µM,0.959
same,relative viability,AZ3146 + Foretinib; first compound 0.253 µM,1.04
same,relative viability,AZ3146 + Foretinib; first compound 0.8 µM,1.11
same,relative viability,AZ3146 + Foretinib; first compound 2.53 µM,0.813
same,relative viability,AZ3146 + Foretinib; first compound 8 µM,0.261
same,relative viability,AZ3146; 0.08 µM,0.863
same,relative viability,AZ3146; 0.253 µM,0.985
same,relative viability,AZ3146; 0.8 µM,0.971
same,relative viability,AZ3146; 2.53 µM,0.898
same,relative viability,AZ3146; 8 µM,0.624
same,relative viability,GSK-J4; 0.5 µM,0.96
same,relative viability,GSK-J4; 1.581 µM,0.735
same,relative viability,GSK-J4; 5 µM,0.741
same,relative viability,GSK-J4; 15.81 µM,1.01
same,relative viability,GSK-J4; 50 µM,0.551

# Reference: the supplement of paper PMC10307832
